Measurements as given in ChEMBL document CHEMBL1201862, “PubChem BioAssay data set” (2004).
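Five compound concentrations were applied to cells in 96-well plates for 48 hours; endpoints were derived by simple linear interpolation of the resulting dose-response curve. The concentration for 50% growth inhibition is given as GI50.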 The source made the active and inactive calls. Rule as the data show it: active = GI50 up to about 1.1 µM and inactive = higher.

Legend:
Assay in all cases: NCI anticancer screen, dose series, 48 h
HT-29 = test system: HT-29
CAKI-1 = test system: CAKI-1
NCI-H226 = test system: NCI-H226
SW-620 = test system: SW-620
SNB-19 = test system: SNB-19
IGROV-1 = test system: IGROV-1
HL-60 = test system: HL-60
NCI-H522 = test system: NCI-H522
COLO 205 = test system: COLO 205
NCI-H23 = test system: NCI-H23
TK-10 = test system: TK-10
SK-MEL-28 = test system: SK-MEL-28
UACC-257 = test system: UACC-257
HOP-92 = test system: HOP-92
OVCAR-8 = test system: OVCAR-8
UO-31 = test system: UO-31
LOX IMVI = test system: LOX IMVI
BT-549 = test system: BT-549
MDA-MB-231 = test system: MDA-MB-231
NCI/ADR-RES = test system: NCI/ADR-RES

| Compound | GI50 (HT-29) | GI50 (CAKI-1) | GI50 (NCI-H226) | GI50 (SW-620) | GI50 (SNB-19) | GI50 (IGROV-1) | GI50 (HL-60) | GI50 (NCI-H522) | GI50 (COLO 205) | GI50 (NCI-H23) | GI50 (TK-10) | GI50 (SK-MEL-28) | GI50 (UACC-257) | GI50 (HOP-92) | GI50 (OVCAR-8) | GI50 (UO-31) | GI50 (LOX IMVI) | GI50 (BT-549) | GI50 (MDA-MB-231) | GI50 (NCI/ADR-RES) |
| --- | --- | --- | --- | --- | --- | --- | --- | --- | --- | --- | --- | --- | --- | --- | --- | --- | --- | --- | --- | --- |
| COc1ccc(C(N)=O)cc1/N=N/N(C)C | > 100 µM (inactive) | > 100 µM (inactive) | > 100 µM (inactive) | > 100 µM (inactive) | > 100 µM (inactive) | > 100 µM (inactive) | > 100 µM (inactive) | > 100 µM (inactive) | > 100 µM (inactive) | > 100 µM (inactive) | > 100 µM (inactive) | > 100 µM (inactive) | > 100 µM (inactive) | > 100 µM (inactive) | 78.3 µM (inactive) | > 100 µM (inactive) | > 100 µM (inactive) | – | – | – |
| CCC(=O)N1C(=S)SC[C@H]1C(=O)OC | > 100 µM (inactive) | > 100 µM (inactive) | > 100 µM (inactive) | > 100 µM (inactive) | > 100 µM (inactive) | > 100 µM (inactive) | > 100 µM (inactive) | > 100 µM (inactive) | > 100 µM (inactive) | > 100 µM (inactive) | > 100 µM (inactive) | > 100 µM (inactive) | > 100 µM (inactive) | > 100 µM (inactive) | > 100 µM (inactive) | > 100 µM (inactive) | > 100 µM (inactive) | – | – | – |
| Clc1ccccc1CN1COc2c(ccc3cccnc23)C1 | – | 2.88 µM (inactive) | 3.87 µM (inactive) | 3.42 µM (inactive) | 11.8 µM (inactive) | 3.5 µM (inactive) | 1.83 µM (inactive) | 0.404 µM (active) | 8.38 µM (inactive) | 1.62 µM (inactive) | 10.4 µM (inactive) | 3.61 µM (inactive) | 2.72 µM (inactive) | 2.36 µM (inactive) | 4.19 µM (inactive) | 1.8 µM (inactive) | 4.4 µM (inactive) | – | – | – |
| CCOP1(=O)C=C(C)C(Cl)=C(C)C1 (stereo not given) | 24.5 µM (inactive) | – | 21.4 µM (inactive) | 21.1 µM (inactive) | > 100 µM (inactive) | 56.1 µM (inactive) | 19.1 µM (inactive) | 13.9 µM (inactive) | 12 µM (inactive) | 22.9 µM (inactive) | 41.4 µM (inactive) | 17.3 µM (inactive) | 23.1 µM (inactive) | 19.6 µM (inactive) | 30 µM (inactive) | 35.3 µM (inactive) | 20.4 µM (inactive) | – | – | – |
| Cc1ccccc1NC(=O)C1C(=O)N(c2ccccc2C)C(=O)/C1=N\N (stereo not given) | > 100 µM (inactive) | > 100 µM (inactive) | > 100 µM (inactive) | > 100 µM (inactive) | > 100 µM (inactive) | > 100 µM (inactive) | > 100 µM (inactive) | > 100 µM (inactive) | > 100 µM (inactive) | > 100 µM (inactive) | – | > 100 µM (inactive) | > 100 µM (inactive) | > 100 µM (inactive) | > 100 µM (inactive) | > 100 µM (inactive) | > 100 µM (inactive) | – | – | – |
| O=C1OC(c2ccc([N+](=O)[O-])cc2)=N/C1=C\c1ccc(O)cc1 | > 100 µM (inactive) | > 100 µM (inactive) | > 100 µM (inactive) | > 100 µM (inactive) | > 100 µM (inactive) | > 100 µM (inactive) | > 100 µM (inactive) | > 100 µM (inactive) | > 100 µM (inactive) | > 100 µM (inactive) | > 100 µM (inactive) | > 100 µM (inactive) | > 100 µM (inactive) | > 100 µM (inactive) | > 100 µM (inactive) | – | > 100 µM (inactive) | > 100 µM (inactive) | > 100 µM (inactive) | – |
| O=C(/C=C/c1ccccc1O)c1cccc2ccccc12 | > 66.5 µM (inactive) | > 92.9 µM (inactive) | > 46.3 µM (inactive) | > 28.1 µM (inactive) | 69.2 µM (inactive) | > 51.4 µM (inactive) | 27.9 µM (inactive) | 51.9 µM (inactive) | > 44.8 µM (inactive) | 60.7 µM (inactive) | > 100 µM (inactive) | > 100 µM (inactive) | > 69.5 µM (inactive) | > 52.2 µM (inactive) | > 71 µM (inactive) | > 47.4 µM (inactive) | > 53.5 µM (inactive) | – | – | – |
| CCOC(=O)CC(N1CC1)N1CC1 | > 10 µM (inactive) | > 10 µM (inactive) | > 10 µM (inactive) | > 10 µM (inactive) | > 10 µM (inactive) | > 10 µM (inactive) | > 10 µM (inactive) | > 10 µM (inactive) | > 10 µM (inactive) | > 10 µM (inactive) | > 10 µM (inactive) | > 10 µM (inactive) | > 10 µM (inactive) | – | – | > 10 µM (inactive) | > 10 µM (inactive) | – | > 10 µM (inactive) | > 10 µM (inactive) |
| CC(C)c1ccc(/C=C2\CSCC3=C2N=C2SCC(=O)N2C3c2ccc(C(C)C)cc2)cc1 (stereo not given) | > 100 µM (inactive) | > 100 µM (inactive) | > 100 µM (inactive) | > 100 µM (inactive) | – | > 100 µM (inactive) | > 100 µM (inactive) | – | > 100 µM (inactive) | > 100 µM (inactive) | > 100 µM (inactive) | > 100 µM (inactive) | > 100 µM (inactive) | > 100 µM (inactive) | > 100 µM (inactive) | 40.4 µM (inactive) | > 100 µM (inactive) | – | > 100 µM (inactive) | > 100 µM (inactive) |
| Cc1c(C)c2ccc(OCC(O)COC(C)C)c(C)c2oc1=O (stereo not given) | 31 µM (inactive) | 41.7 µM (inactive) | – | 29.4 µM (inactive) | 57.5 µM (inactive) | 70.6 µM (inactive) | 35 µM (inactive) | 17.2 µM (inactive) | > 10 µM (inactive) | 91.6 µM (inactive) | 25.1 µM (inactive) | 34 µM (inactive) | 19.8 µM (inactive) | 33.2 µM (inactive) | 28.2 µM (inactive) | 41.8 µM (inactive) | 18.7 µM (inactive) | – | – | 41.5 µM (inactive) |
| CC1=C(C(=O)Nc2ccccc2C)C(c2ccc(C3C(C(=O)Nc4ccccc4C)=CNC=C3C(=O)Nc3ccccc3C)cc2)C(C(=O)Nc2ccccc2C)=C(C)N1 | 14.4 µM (inactive) | 21.3 µM (inactive) | 17 µM (inactive) | 14.6 µM (inactive) | 19.8 µM (inactive) | 18.6 µM (inactive) | 8 µM (inactive) | 6.68 µM (inactive) | 21 µM (inactive) | 19.1 µM (inactive) | 49.7 µM (inactive) | 17.9 µM (inactive) | 17.1 µM (inactive) | 22.4 µM (inactive) | 25.6 µM (inactive) | 18.7 µM (inactive) | 7.08 µM (inactive) | – | – | – |
| C/C(=N/NC(=S)NCCc1ccccn1)c1cnccn1 | 3.78 µM (inactive) | 14.1 µM (inactive) | – | 11.9 µM (inactive) | 54.7 µM (inactive) | 19 µM (inactive) | – | 3.6 µM (inactive) | 3.8 µM (inactive) | 38.6 µM (inactive) | 17 µM (inactive) | 31 µM (inactive) | 35.6 µM (inactive) | 49.3 µM (inactive) | – | 16.6 µM (inactive) | 9.66 µM (inactive) | 32.5 µM (inactive) | 26.2 µM (inactive) | – |
| O=C1OC2(c3ccccc3Oc3ccccc32)c2ccccc21 | > 100 µM (inactive) | > 100 µM (inactive) | > 100 µM (inactive) | > 100 µM (inactive) | > 100 µM (inactive) | > 100 µM (inactive) | 99.8 µM (inactive) | 69.8 µM (inactive) | > 100 µM (inactive) | > 100 µM (inactive) | > 100 µM (inactive) | > 100 µM (inactive) | 99.5 µM (inactive) | > 100 µM (inactive) | > 100 µM (inactive) | > 100 µM (inactive) | > 100 µM (inactive) | – | – | – |
| OC(c1cc2ccccc2[nH]1)C(O)(c1cc2ccccc2[nH]1)c1cc2ccccc2[nH]1 (stereo not given) | 9.18 µM (inactive) | 19.9 µM (inactive) | 11.8 µM (inactive) | 10.1 µM (inactive) | 27.2 µM (inactive) | 8.81 µM (inactive) | 7.91 µM (inactive) | 8.61 µM (inactive) | 4.44 µM (inactive) | 5.83 µM (inactive) | 40.1 µM (inactive) | 19.1 µM (inactive) | 16.3 µM (inactive) | 14.9 µM (inactive) | 15.9 µM (inactive) | – | 10.8 µM (inactive) | – | – | – |
| Cc1ccc(SCC(=O)C2=C(O)CCCC2=O)cc1 | > 100 µM (inactive) | > 100 µM (inactive) | > 100 µM (inactive) | > 100 µM (inactive) | > 100 µM (inactive) | > 100 µM (inactive) | > 100 µM (inactive) | > 100 µM (inactive) | > 100 µM (inactive) | > 100 µM (inactive) | > 100 µM (inactive) | > 100 µM (inactive) | > 100 µM (inactive) | > 100 µM (inactive) | > 100 µM (inactive) | > 100 µM (inactive) | > 100 µM (inactive) | – | – | – |
| CC(=O)OC12c3ccccc3-c3ccccc3C1C(C(=O)O)C2C(=O)O (stereo not given) | > 10 µM (inactive) | > 10 µM (inactive) | > 10 µM (inactive) | > 10 µM (inactive) | > 10 µM (inactive) | > 10 µM (inactive) | > 10 µM (inactive) | > 10 µM (inactive) | > 10 µM (inactive) | > 10 µM (inactive) | > 10 µM (inactive) | > 10 µM (inactive) | > 10 µM (inactive) | > 10 µM (inactive) | > 10 µM (inactive) | > 10 µM (inactive) | > 10 µM (inactive) | – | > 10 µM (inactive) | > 10 µM (inactive) |
